Tests used:
SW620 cells (KRAS G12V) = assay: Cell viability assay, G12V; assay type: cell-based, human; details: Homo sapiens, SW-620; SW620, 72 hrs, Cell Counting Kit-8
Description: (§1) The purpose of this cellular assay was to determine the effects of test compounds on the proliferation of human cancer cell lines NCI-H358 (ATCC-CRL5807) cells, AGS (ATCC-CRL-1739) cells, SW620 (ATCC-CCL-227) over a 3-day treatment period by quantifying the amount of NADPH present at endpoint using Cell Counting Kit-8.
(§2) Cells were seeded at 5,000 cells/well (NCI-H358), 2,000 cells/well (AGS) 2,000 cells/well (SW620) in 96-well assay plates (Corning-3699) and incubated overnight. On the day of the assay, diluted compounds were then added in a final concentration of 0.5% DMSO. After 72 hrs incubation, a tenth of the volume of cell counting kit 8 (Dnjindo-CK04) was added into each well. Read the signal (OD450 minus OD650) using EnVision after 2 hrs incubation. IC50 was determined by fitting a 4-parameter sigmoidal concentration response model.

AGS cells (KRAS G12D) = assay: Cell viability assay, G12D; assay type: cell-based, human; details: Homo sapiens, 72 hrs, Cell Counting Kit-8
Description: as §1, §2

[1] = test system: phosphorylation of ERK, KRAS G12D in AGS cells; assay: pERK inhibition assay, G12D; assay type: cell-based, human; details: Homo sapiens, 4 hours of incubation
Description: (§3) This assay is to measure the ability of test compounds in inhibiting the phosphorylation of ERK, the downstream signaling of KRAS G12C in NCI-H358 cells, KRAS G12D in AGS cells, and KRAS G12V in SW620. NCI-H358 (ATCC-CRL5807) cells, AGS (ATCC-CRL-1739) cells, SW620 (ATCC-CCL-227) cells were all grown and maintained using RPMI-1640 medium (Thermo Fisher Scientific) with 10% fetal bovine serum and 1% penicillin/streptomycin. On the day prior to compound addition, cells were plated in tissue culture-treated 96 well plates (Corning-3699) at a density of 30,000 cell/well, 20,000 cell/well, 30,000 cell/well for NCI-H358, AGS and SW620 respectively, and allowed for attachment overnight. Diluted compounds were then added in a final concentration of 0.5% DMSO. After 4 hours of incubation, the medium was removed, 100 μL of 4% formaldehyde was added, and the assay plates were incubated at room temperature for 20 minutes. The plates were then washed once with phosphate buffered saline (PBS), and permeabilized with 100 μL of chilled methanol for 10 minutes. Non-specific antibody binding to the plates was blocked using 50 μL 1×BSA blocking buffer (Thermo-37520, 10-fold dilution by Phosphate-Buffered Saline Tween (PBST) for at least 1 hour at room temperature.
(§4) The amount of phosphor-ERK was determined using an antibody specific for phosphorylated form of ERK. Primary antibody (pERK, CST-4370, Cell Signaling Technology) was diluted 1:300 in blocking buffer, with 50 μL aliquoted to each well, and incubated overnight at 4° C. Cells was washed five times for 5 minutes with PBST. Secondary antibody (HRP-linked anti-rabbit IgG, CST-7074, Cell Signaling Technology) was diluted 1:1000 in blocking buffer, and 50 μL was added to each well and incubated 1-2 hrs at room temperature. Cells was washed 5 times for 5 minutes with PBST, 100 μL TMB ELISA substrate (abcam-ab171523) were added and gently shake for 20 minutes. 50 μL stop solution (abcam-ab171529) were added, and then read the signal (OD450) by EnVision.
(§5) IC50 was determined by fitting a 4-parameter sigmoidal concentration response model.

KRAS G12C-BRAF complex = target: T1, KRAS G12C-BRAF complex (Homo sapiens, UniProt P01116+P62937, G12C); assay: KRAS G12C-BRAF NanoBit assay in HEK293 cells; assay type: cell-based; details: HEK293 stable cell pool, 3 hours of incubation
T1 construct: expressed in transfected cells
T1 sequence (P01116 1-188 isoform P01116-2 G12C): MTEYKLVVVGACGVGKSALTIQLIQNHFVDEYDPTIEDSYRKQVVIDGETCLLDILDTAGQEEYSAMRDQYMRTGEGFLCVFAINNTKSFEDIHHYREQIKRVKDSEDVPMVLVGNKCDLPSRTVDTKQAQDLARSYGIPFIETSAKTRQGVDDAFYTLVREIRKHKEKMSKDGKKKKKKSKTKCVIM
T1 sequence (P62937 whole entry): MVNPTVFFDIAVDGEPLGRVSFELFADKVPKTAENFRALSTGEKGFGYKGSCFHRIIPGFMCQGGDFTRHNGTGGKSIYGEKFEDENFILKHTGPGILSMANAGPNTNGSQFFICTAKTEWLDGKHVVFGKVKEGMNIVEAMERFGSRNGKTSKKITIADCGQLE
Description: This assay is to measure the ability of tested compounds in disruption of the KRAS G12C-BRAF complex at the cellular level, we established the NanoBit cellular assay in mammalian HEK293 (ATCC) cells. HEK293 cells were grown and maintained using DMEM medium (Thermo Fisher Scientific) with 10% fetal bovine serum and 1% penicillin/streptomycin. Both KRAS G12C and BRAF RBD were cloned into the NanoBit vectors ([…] vectors system, Promega) with the orientations SmBit-KRAS G12C and BRAF RBD-LgBit, respectively, and co-transfected into HEK293 cells. Cells were then selected with 100 μg/mL Hygromycin B (10687010, Thermo Fisher) and Blasticidin (5 μg/mL) for 4 weeks to get the stable cell pool. On the day of the assay, 75 nL of compound solution was presented in a 384-well assay plate as a 16-point 3-fold dilution starting from a final concentration of 30 μM in DMSO. Then cells were seeded at 10,000 cells/25 μL/well in a 384-well plate. After 3 hours of incubation, 6 μL of volume of Nano-Glo® Live Cell Substrate (Promega) was added into each well. Monitor luminescence using ultra384 model in Envision at 20 minutes. Compounds that facilitate disruption of the KRAS G12C-BRAF RBD complex were identified as those eliciting a decrease of luminescence relative to DMSO control wells.

[2] = test system: phosphorylation of ERK, KRAS G12V in SW620; assay: pERK inhibition assay, G12V; assay type: cell-based, human; details: Homo sapiens, SW-620; SW620, 4 hours of incubation
Description: as §3, §4, §5

[3] = test system: phosphorylation of ERK, KRAS G12C in NCI-H358 cells; assay: pERK inhibition assay, G12C; assay type: cell-based, human; details: Homo sapiens; NCI-H358, 4 hours of incubation
Description: as §3, §4, §5

[4] = test system: NCI-H358 cells (KRAS G12C); assay: Cell viability assay, G12C; assay type: cell-based, human; details: Homo sapiens; NCI-H358, 72 hrs, Cell Counting Kit-8
Description: as §1, §2

IC50 (SW620 cells (KRAS G12V)) | IC50 (AGS cells (KRAS G12D)) | IC50 [1] | IC50 (KRAS G12C-BRAF complex) | IC50 [2] | IC50 [3] | IC50 [4] | Compound
0.222 µM | 0.231 µM | > 10 µM | 0.085 µM | 0.076 µM | 0.019 µM | 0.02 µM | CCn1c(-c2cc(N3CCOCC3)cnc2[C@H](C)OC)c2c3cc(c(F)cc31)-c1csc(n1)C[C@H](NC(=O)[C@H](C(C)C)N(C)C(=O)[C@H]1C[C@@H](C#Cc3nccc(C(F)(F)F)n3)C1)C(=O)N1CCC[C@H](N1)C(=O)OCC(C)(C)C2 (atropisomer, axis not shown; (M)) [Example 21, cis-N-[(1S)-1-[[(7S,13S)-21-ethyl-24-fluoro-(20M)-20-[2-[(1S)-1-methoxyethyl]-5-morpholino-3-pyridyl]-17,17-dimethyl-8,14-dioxo-15-oxa-4-thia-9,21,27,28-tetrazapentacyclo[17.5.2.1^2,5.1^9,13.0^22,26]octacosa-1(25),2,5(28),19,22(26),23-hexaen-7-yl]carbamoyl]-2-methyl-propyl]-N-methyl-3-[2-[4-(trifluoromethyl)pyrimidin-2-yl]ethynyl]cyclobutanecarboxamide]
0.152 µM | > 10 µM | 0.172 µM | 0.036 µM | 0.078 µM | 0.013 µM | 0.012 µM | CO[C@@H](C)c1ncc(N2CCOCC2)cc1-c1c2c3cc(c(F)cc3n1CC(F)(F)F)-c1csc(n1)C[C@H](NC(=O)[C@H](C(C)C)N(C)C(=O)[C@H]1C[C@@H](C#CC(F)(F)F)C1)C(=O)N1CCC[C@H](N1)C(=O)OCC(C)(C)C2 (atropisomer, axis not shown; (M)) [Example 22, cis-N-[(1S)-1-[[(7S,13S)-24-fluoro-(20M)-20-[2-[(1S)-1-methoxyethyl]-5-morpholino-3-pyridyl]-17,17-dimethyl-8,14-dioxo-21-(2,2,2-trifluoroethyl)-15-oxa-4-thia-9,21,27,28-tetrazapentacyclo[17.5.2.1^2,5.1^9,13.0^22,26]octacosa-1(25),2,5(28),19,22(26),23-hexaen-7-yl]carbamoyl]-2-methyl-propyl]-N-methyl-3-(3,3,3-trifluoroprop-1-ynyl)cyclobutanecarboxamide]
> 10 µM | > 10 µM | > 10 µM | 0.24 µM | 0.048 µM | 0.051 µM | 0.006 µM | CO[C@@H](C)c1ncc(N2CCN(CC(F)(F)F)CC2)cc1-c1c2c3cc(c(F)cc3n1CC(F)(F)F)-c1csc(n1)C[C@H](NC(=O)[C@H](C(C)C)N(C)C(=O)N1CC(C#CC(F)(F)F)C1)C(=O)N1CCC[C@H](N1)C(=O)OCC(C)(C)C2 (atropisomer, axis not shown; (M)) [Example 18, N-[(1S)-1-[[(7S,13S)-24-fluoro-(20M)-20-[2-[(1S)-1-methoxyethyl]-5-[4-(2,2,2-trifluoroethyl)piperazin-1-yl]-3-pyridyl]-17,17-dimethyl-8,14-dioxo-21-(2,2,2-trifluoroethyl)-15-oxa-4-thia-9,21,27,28-tetrazapentacyclo[17.5.2.1^2,5.1^9,13.0^22,26]octacosa-1(25),2,5(28),19,22(26),23-hexaen-7-yl]carbamoyl]-2-methyl-propyl]-N-methyl-3-(3,3,3-trifluoroprop-1-ynyl)azetidine-1-carboxamide]

The next lines start with the molecule.

Compound | IC50 (SW620 cells (KRAS G12V)) | IC50 (AGS cells (KRAS G12D)) | IC50 [1] | IC50 (KRAS G12C-BRAF complex) | IC50 [2] | IC50 [3] | IC50 [4]
CO[C@@H](C)c1ncc(N2CCN(C)CC2)cc1-c1c2c3cc(c(F)cc3n1CC(F)(F)F)-c1csc(n1)C[C@H](NC(=O)[C@H](C(C)C)N(C)C(=O)[C@H]1C[C@@H](C#Cc3nccc(C(F)(F)F)n3)C1)C(=O)N1CCC[C@H](N1)C(=O)OCC(C)(C)C2 (atropisomer, axis not shown; (M)) [Example 16, cis-N-[(1S)-1-[[(7S,13S)-24-fluoro-(20M)-20-[2-[(1S)-1-methoxyethyl]-5-(4-methylpiperazin-1-yl)-3-pyridyl]-17,17-dimethyl-8,14-dioxo-21-(2,2,2-trifluoroethyl)-15-oxa-4-thia-9,21,27,28-tetrazapentacyclo[17.5.2.1^2,5.1^9,13.0^22,26]octacosa-1(25),2,5(28),19,22(26),23-hexaen-7-yl]carbamoyl]-2-methyl-propyl]-N-methyl-3-[2-[4-(trifluoromethyl)pyrimidin-2-yl]ethynyl]cyclobutanecarboxamide] | 0.237 µM | 0.743 µM | > 10 µM | 0.209 µM | 0.031 µM | 0.021 µM | 0.011 µM
CCn1c(-c2cc(N3CCOCC3)cnc2[C@H](C)OC)c2c3cc(c(F)cc31)-c1csc(n1)C[C@H](NC(=O)[C@H](C(C)C)N(C)C(=O)N1CC(C#CC(F)(F)F)C1)C(=O)N1CCCC(N1)C(=O)OCC(C)(C)C2 (stereo partly drawn) [Example 20, N-[(1S)-1-[[(7S,13S)-21-ethyl-24-fluoro-(20M)-20-[2-[(1S)-1-methoxyethyl]-5-morpholino-3-pyridyl]-17,17-dimethyl-8,14-dioxo-15-oxa-4-thia-9,21,27,28-tetrazapentacyclo[17.5.2.1^2,5.1^9,13.0^22,26]octacosa-1(25),2,5(28),19,22(26),23-hexaen-7-yl]carbamoyl]-2-methyl-propyl]-N-methyl-3-(3,3,3-trifluoroprop-1-ynyl)azetidine-1-carboxamide] | 0.119 µM | > 10 µM | 2.51 µM | 0.084 µM | 0.096 µM | 0.093 µM | 0.025 µM
CCn1c(-c2cc(N3CCN(CC(F)(F)F)CC3)cnc2[C@H](C)OC)c2c3cc(c(F)cc31)-c1csc(n1)C[C@H](NC(=O)[C@H](C(C)C)N(C)C(=O)N1CC(C#CC(F)(F)F)C1)C(=O)N1CCC[C@H](N1)C(=O)OCC(C)(C)C2 (atropisomer, axis not shown; (M)) [Example 15, N-[(1S)-1-[[(7S,13S)-21-ethyl-24-fluoro-(20M)-20-[2-[(1S)-1-methoxyethyl]-5-[4-(2,2,2-trifluoroethyl)piperazin-1-yl]-3-pyridyl]-17,17-dimethyl-8,14-dioxo-15-oxa-4-thia-9,21,27,28-tetrazapentacyclo[17.5.2.1^2,5.1^9,13.0^22,26]octacosa-1(25),2,5(28),19,22(26),23-hexaen-7-yl]carbamoyl]-2-methyl-propyl]-N-methyl-3-(3,3,3-trifluoroprop-1-ynyl)azetidine-1-carboxamide] |  |  | > 10 µM |  | 0.021 µM | 0.02 µM | 
